Test: Exploratory aldehyde trapping studies in PBS and ACN/H2O (MS)
Format: biochemical
Conditions: 10 μM aldehyde, 1 mM trapping reagent, PBS or 50/50 ACN/H2O
Method: Semicarbazide (SCZ), glutathione (GSH), cysteine, and N-acetyl cysteine were used as trapping agents with the aldehydes 4-hydroxynonenal (4-HNE), malondialdehyde, acetaldehyde, hexanal, pentanal, and decanal. 10 μM of aldehyde was mixed with 1 mM of trapping reagent in either PBS or 50/50 ACN/H2O.

Row | Compound | trapping of aldehydes as judged by MS | trapping effectiveness, comparison of trapping agents
1 | N[C@@H](CCC(=O)N[C@@H](CS)C(=O)NCC(=O)O)C(=O)O [glutathione] | appeared to trap aldehydes | 
2 | NNC(N)=O [semicarbazide, Semicarbazide] | appeared to trap aldehydes | more effective than GSH
